From patent US20050059661A1, “Use of tyrosine kinase inhibitors for the treatment of inflammatory processes” (Boehringer Ingelheim International GmbH, priority 2003, published 2005)

test system: cigarette smoke-induced influx of neutrophilic granulocytes into the lung tissue; test: Test 1: Inhibition of the smoke-induced accumulation of granulocytes in the lung tissue (MPO activity); format: in vivo, rats (Sprague-Dawley); conditions: male Sprague-Dawley rats, 5 days smoke from 8 cigarettes per day, intratracheal dose 30 min before exposure, lung tissue MPO, linear regression
Source text: • A=4-[(R)-(1-phenyl-ethyl)amino]-6-{[4-((R)-6-methyl-2-oxo-morpholin-4-yl)-1-oxo-2-buten-1-yl]amino}-7-methoxy-quinazoline, • B=4-[(3-chloro-4-fluorophenyl)amino]-6-({4-[N,N-bis-(2-methoxy-ethyl)-amino]-1-oxo-2-buten-1-yl}amino)-7-[(tetrahydrofuran-2-yl)methoxy]-quinazoline, • C=4-[(3-chloro-4-fluoro-phenyl)amino]-6-[2-(2,2-dimethyl-6-oxo-morpholin-4-yl)-ethoxy]-7-methoxy-quinazoline, • D=4-[(3-chloro-4-fluoro-phenyl)amino]-6-[2-(2,2-dimethyl-6-oxo-morpholin-4-yl)-ethoxy]-7-[(R)-(tetrahydrofuran-2-yl)methoxy]-quinazoline and • E=4-[(3-chloro-4-fluoro-phenyl)amino]-7-[2-(2,2-dimethyl-6-oxo-morpholin-4-yl)-ethoxy]-6-[(S)-(tetrahydrofuran-2-yl)methoxy]-quinazoline were tested as follows to investigate their anti-inflammatory activity: Test 1: Inhibition of the Smoke-Induced Accumulation of Granulocytes in the Lung Tissue Lung indications: Inhibition of the cigarette smoke-induced influx of neutrophilic granulocytes into the lung tissue by the EGF-receptor kinase inhibitor 4-[(R)-(1-phenyl-ethyl)amino]-6-{[4-((R)-6-methyl-2-oxo-morpholin-4-yl)-1-oxo-2-buten-1-yl]amino}-7-methoxy-quinazoline (compound A). Male rats (strain: Sprague-Dawley) weighing from 250-300 g were exposed for 5 days to the smoke from 8 cigarettes per day. The animals in the group treated with compound A, anaesthetised with isofluran, were given an intratracheal dose of 0.03 or 0.1 mg/kg of compound A in a volume of 0.05 ml each day 30 min before the start of the exposure to smoke. On the last day of the test the animals were killed 4 hours after the last exposure to smoke and the lung tissue was removed. A sample of 70-200 mg was taken from each lung and placed in a test tube prepared with 1 ml of 0.5% hexadecyltrimethylammonium bromide. The samples were homogenised for 15 sec using an Ultraturrax. The homogenised samples were centrifuged at 15700 g in an Eppendorf bench centrifuge for 5 min at ambient temperature. […] of the supernatant was removed and mixed with […] of phosphate buffer (50 mmol/l) containing 0.197 mg/ml of O-dianisidine dihydrochloride. After 10 minutes' incubation at ambient temperature the absorption was measured with a spectral photometer at a wavelength of 450 nm. The dosage which led to a 50% inhibition of the MPO activity (═ID50) was determined by linear regression.

**Q.** For `COc1cc2ncnc(N[C@H](C)c3ccccc3)c2cc1NC(=O)C=CCN1CC(=O)O[C@H](C)C1` [A, 4-[(R)-(1-phenyl-ethyl)amino]-6-{[4-((R)-6-methyl-2-oxo-morpholin-4-yl)-1-oxo-2-buten-1-yl]amino}-7-methoxy-quinazoline], which “ID50 (dosage which led to a 50% inhibition of the MPO activity)” value is on record?
**A.** Its value is 0.3 mg/kg.

**Q.** With `COCCN(CC=CC(=O)Nc1cc2c(Nc3ccc(F)c(Cl)c3)ncnc2cc1OCC1CCCO1)CCOC` (stereo not drawn) [B, 4-[(3-chloro-4-fluorophenyl)amino]-6-({4-[N,N-bis-(2-methoxy-ethyl)-amino]-1-oxo-2-buten-1-yl}amino)-7-[(tetrahydrofuran-2-yl)methoxy]-quinazoline] as the molecule, how does the “ID50 (dosage which led to a 50% inhibition of the MPO activity)” value read?
**A.** The value was 0.2 mg/kg.

**Q.** With `COc1cc2ncnc(Nc3ccc(F)c(Cl)c3)c2cc1OCCN1CC(=O)OC(C)(C)C1` [C, 4-[(3-chloro-4-fluoro-phenyl)amino]-6-[2-(2,2-dimethyl-6-oxo-morpholin-4-yl)-ethoxy]-7-methoxy-quinazoline] as the molecule, how does the “ID50 (dosage which led to a 50% inhibition of the MPO activity)” value read?
**A.** Its value is 1 mg/kg.

**Q.** Which “ID50 (dosage which led to a 50% inhibition of the MPO activity)” value does the source give for `CC1(C)CN(CCOc2cc3c(Nc4ccc(F)c(Cl)c4)ncnc3cc2OC[C@H]2CCCO2)CC(=O)O1` [D, 4-[(3-chloro-4-fluoro-phenyl)amino]-6-[2-(2,2-dimethyl-6-oxo-morpholin-4-yl)-ethoxy]-7-[(R)-(tetrahydrofuran-2-yl)methoxy]-quinazoline] here?
**A.** Its value is 1.1 mg/kg.

**Q.** Which “ID50 (dosage which led to a 50% inhibition of the MPO activity)” value does the source give for `CC1(C)CN(CCOc2cc3ncnc(Nc4ccc(F)c(Cl)c4)c3cc2OC[C@@H]2CCCO2)CC(=O)O1` [E, 4-[(3-chloro-4-fluoro-phenyl)amino]-7-[2-(2,2-dimethyl-6-oxo-morpholin-4-yl)-ethoxy]-6-[(S)-(tetrahydrofuran-2-yl)methoxy]-quinazoline] here?
**A.** Its value is 0.4 mg/kg.

same assay, conditions: rats, intratracheal 0.03 or 0.1 mg/kg daily for 5 days, 30 min before smoke exposure

**Q.** `COc1cc2ncnc(N[C@H](C)c3ccccc3)c2cc1NC(=O)C=CCN1CC(=O)O[C@H](C)C1` [A, 4-[(R)-(1-phenyl-ethyl)amino]-6-{[4-((R)-6-methyl-2-oxo-morpholin-4-yl)-1-oxo-2-buten-1-yl]amino}-7-methoxy-quinazoline] was tested. Which “inhibition of the smoke-induced accumulation of granulocytes (myeloperoxidase content of lung tissue)” value did it give?
**A.** Its value is “significant (p<0.005) inhibition”.
